Here are results for two molecules from patent US20240325374A1, “INHIBITING INTRACELLULAR PATHOGENS” (THE RESEARCH INSTITUTE AT NATIONWIDE CHILDREN'S HOSPITAL, priority 2021, published 2024).

Series [1] has as its system S. typhi strain TY2. Description: Bacterial growth in macrophages (intracellular CFU), S. typhi in J774.1. The class given is cell-based. The settings on record: infected J774.1, 24 hrs post treatment. The source says: (§1) Hoang et al., International Journal of Pharmaceutics, 2014. 477(1-2): p. 334-343.
Series [2] concerns uninfected mice. Description: Toxicity study of KH-1-2 in vivo. Here is the method: To examine the toxicity of KH-1-2, mice were intraperitoneally (i.p.) given KH-1-2 that was dissolved in 200 μl of polyethylene glycol 400 (PEG 400)-0.9% saline-ethanol (50:35:15) at 1 mg and 10 mg/kg of body weight per day for 12 consecutive days. Mice in the control groups received 200 μl of PEG-saline-ethanol. The experimental animals were observed daily throughout the study for clinical signs, and mortality. At the end of the experiment, mice were sacrificed, and liver, spleen, and kidney were collected, fixed in 4% paraformaldehyde for 72 hrs, processed and stained with hematoxylin and eosin (H&E) for histopathologic evaluation, which was performed at the Morphology Core at Nationwide Children's Hospital.
To examine the in vivo toxicity of KH-1-2, uninfected mice were given KH-1-2 intraperitoneally in 200 μl of polyethylene glycol 400 (PEG 400)-0.9% saline-ethanol (50:35:15) at 1 and 10 mg/kg body weight daily for 12 consecutive days. Mice in the control group were treated with an equal amount of diluent. Mice were monitored for clinical signs and at day 13, the liver, spleen, and kidney were collected for histopathologic evaluation.

Series [3] has as its system macrophages. Put plainly: Toxicity of compound alone to macrophages by LDH release. It is filed as cell-based. The settings on record: effective concentrations. (In general: LDH leaks from cells whose membrane has failed.)
Series [4] concerns S. typhimurium wild-type strain ATCC 14028. Put plainly: Bacterial growth in macrophages (intracellular CFU), wild-type S. typhimurium in J774.1. It is filed as cell-based.
From the text: as §1
The J774.1 cells were infected with S. typhimurium and treated with KH-2.

For series [5], the system named is ciprofloxacin-resistant S. typhimurium. Description: Mouse model of typhoid fever, ciprofloxacin-resistant S. typhimurium, survival. It is filed as in vivo, BALB/c mice. Here is the method: S. typhi is a human-restricted pathogen and is unable to colonize in mice. However, S. typhimurium causes a typhoid fever-like disease in mice and is widely used as a model to study human typhoid fever. Johnson, R., E. Mylona, and G. Frankel, Cell Microbiol, 2018. 20(9): p. e12939. […] Mice were infected with the ciprofloxacin-resistant S. typhimurium at a lethal dose of 10^6 CFU per mouse in 200 μl PBS via the i.p. route.
After determining the maximum tolerable dose of KH-1-2 by the i.p. route (10 mg/kg of body weight per day), the protective efficacy of KH-1-2 as a treatment for typhoid fever was evaluated. Mice (4 or 5 mice per group) were infected at day 0 with a lethal dose of the ciprofloxacin-resistant S. typhimurium isolate as described above. One day post-infection, the infected mice were given KH-1-2 prepared in 200 μl PBS at 0.05, 0.1, and 0.25 mg/kg body weight per day via i.p. delivery for 14 consecutive days.
We next sought to examine the effectiveness of delivering KH-1-2 for controlling a ciprofloxacin-resistant S. typhimurium isolate in a mouse model of typhoid fever. Mice were challenged with a lethal dose of bacteria via oral gavage and the infected mice were i.p. treated with KH-1-2 prepared in 200 μl PBS at 0.05, 0.1, and 0.25 mg/kg body weight/day for 14 consecutive days. […] As expected, all mice in the control group were moribund before or at day 12 post-infection.

Series [6] has as its system PLB-985 neutrophil-like cells. Put plainly: Neutrophil reactive oxygen species production assay. The class given is cell-based. The settings on record: various concentrations, luminol chemiluminescence for 1 hour. As to the method:
PLB-985 cells that were cultured in RPMI supplemented with 10% FBS and penicillin-streptomycin (100 μg/ml each) were differentiated to a neutrophil-like phenotype by 6-day incubation in RPMI supplemented with 0.5% N,N-dimethylformamide, 0.5% FBS, 1% Nutridoma-SP (Roche; Mannheim, Germany), […] L-glutamine, and 1× penicillin/streptomycin. Media was replaced on day 3. On day 6 after differentiation, the medium was removed and replaced with 100 μl fresh medium containing different concentrations of KH-1-2. Cells in the positive control group were stimulated with 400 ng PMA/ml. Cells in the negative control group were treated with an equivalent concentration of DMSO. All groups were supplied with luminol (final concentration of 500 μM) and reactive oxygen species (ROS) production at 37° C. was monitored in triplicate by luminol-dependent chemiluminescence measured every 2 minutes for 1 hour using a Spectra Max M3 plate reader.

Series [7] has as its system S. typhimurium-infected J774.1 macrophages. Put plainly: LDH release from Salmonella-infected macrophages. The settings on record: 5 μM, 10 μM and 20 μM, after 24 h. It is filed as cell-based, murine. Here is the method:
The strategy to identify host-targeted compounds is outlined in FIG. 1. Briefly, J774.1 macrophages in suspension at 3×10^6 cells/ml were infected with S. typhimurium at a multiplicity of infection (MOI) of 10 for 1 hour with orbital shaking at 80 rpm. […] The infected macrophages were resuspended in a medium containing 10 μg/ml gentamicin, seeded onto 96-well plates at 10^5 cells/well in 150 μl medium, and allowed to adhere to the well for three hours. The infected cells in each well were then treated with 25 μM of each compound from the ATP mimetic library using a multichannel pipette. […] After 24 hours of incubation, an LDH assay (Roche Applied Science, Indianapolis, IN) was performed using 50 μl of supernatant from each well. Absorbance at 570 nm was determined via a plate reader Spectra Max M3. […]
We developed a cell-based assay to screen 3000 compounds of an ATP-mimetic library purchased from ChemBridge using J774.1 macrophages for those that protect S. typhimurium-infected macrophages from death. The viability of Salmonella-infected J774.1 cells was determined by measuring LDH release from the infected cells. […] To examine whether the reduction in LDH release was due to the limited growth of the bacteria intracellularly, the infected cells were treated with various concentrations of KH-1, and the intracellular bacterial load was determined at 24 hours post-treatment. […]

Series [8] deals with S. typhimurium. Put plainly: Broth antibacterial assay (OD600 in LB). The class given is cell-based. The note with it: KH-2 10 μM, 20 μM and 50 μM. As to the method:
An equivalent amount of DMSO was added in a control group. The bacterial growth was monitored at an optical density at 600 nm (OD600) at the indicated time points using a plate reader Spectra Max M3.
Overnight cultures of S. typhimurium were sub-cultured (1:100) in fresh Luria-Bertani (LB) broth in presence of different concentration of KH-2 and incubated at 37° C. The vehicle control (DMSO) groups were included. The experiments were performed in 96-well plates. The bacterial growth was monitored at different time-points by measuring optical density at 600 nm (OD600).

Series [9] concerns S. typhimurium. Description: KH-2 protection of mice from lethal S. typhimurium infection, survival. It is filed as in vivo, BALB/c mice. The note with it: 0.5, 1.0, 2.5 and 5 mg/kg/day i.p., day 1 to day 12, oral infection 10^6 bacteria/mouse, survival to day 14. As to the method: Pathogen-free 6- to 8-week-old female BALB/c mice were purchased from Harlan Sprague. Mice (3 mice/group, except the vehicle control group) were provided food and water ad libitum in sterile microisolator cages and allowed to acclimatize for 3 days before challenge. Mice were orally infected with 10^6 bacteria/mouse (day 0) in 200 μl PBS. The infected mice were intraperitoneally given KH-2 at different doses (5 mg, 2.5 mg, 1 mg, and 0.5 mg/kg body weight/day) in 200 μl PBS from day 1 to day 12 post infection. Vehicle (DMSO) was added as the control group. The mice were monitored for survival until day 14 post infection. […] A mouse model of typhoid fever was used to assess the efficacy of KH-2 in increasing the survival rate of infected mice.

Regarding `O=C1c2oc3ccccc3c(=O)c2C(c2cccc(Oc3ccccc3)c2)N1Cc1ccc(F)cc1` (stereo not drawn) [KH-1-2, 2-(4-fluorobenzyl)-1-(3-phenoxyphenyl)-1,2-dihydrochromeno[2,3-c] pyrrole-3,9-dione], the “intracellular growth of S. typhi, compared with KH-1” value in series [1] is “more effective at reducing the intracellular growth of S. typhi”. Moreover, the liver histopathology entry is “no adverse effects” in series [2] (1 mg/kg i.p. daily); “minimal alterations including increased infiltration of lymphocytic cells and neutrophils” in series [2] (10 mg/kg i.p. daily). Besides, the maximum tolerable dose in [2] (i.p. route, mice) was 10 mg/kg of body weight per day. Further, in series [2] (uninfected mice, i.p., 1 and 10 mg/kg body weight daily, 12 consecutive days), the clinical signs result was “no adverse clinical signs”. Further, the “immune cell migration and apoptosis in liver, spleen, kidney” value in series [2] (uninfected mice, i.p., 1 and 10 mg/kg daily, 12 days) is recorded as “No increase in immune cell migration or significant apoptosis”. Also, the “histologic evaluation of the liver, spleen, and kidney” value in series [2] (uninfected mice, i.p., 1 and 10 mg/kg daily, 12 days, organs at day 13) is “no dose-related macroscopic or microscopic findings”. In addition, in series [3], the “toxicity to macrophages as measured by LDH release” value is “not toxic to macrophages at the effective concentrations”. The EC50 in series [4] (Salmonella enterica, infected J774.1 cells, CFU at 24 hrs post treatment, % of DMSO control, read-out: half maximal effective concentration (EC50) on S. typhimurium) amounted to 2.6 µM. For the same molecule, in series [4] (in vitro treatment of Salmonella infection), the “reduction in bacterial load in infected macrophages” value is recorded as 8- to 10 fold. In series [4] (infected macrophages, with sub-optimal dose of ciprofloxacin, 24 hours post-treatment), the “intracellular bacterial growth in combination with sub-optimal ciprofloxacin” value was “further reduces Salmonella growth inside macrophages”. The survival in series [5] (0.1 mg/kg body weight/day i.p., 14 consecutive days, lethal dose 10^6 CFU/mouse) is reported as 60%. Moreover, in series [5] (0.05, 0.1 and 0.25 mg/kg body weight/day i.p., 14 days, p<0.05), the “survival versus control untreated group” value is “significantly greater survival”. Also, the “reactive oxygen species (ROS) production” value in series [6] is “does not involve in induction of reactive oxygen species (ROS) production”.
Consider `COC(=O)c1cccc(COC(=O)c2cc(O)nc3ccccc23)c1` [KH-2, 3-(methoxycarbonyl)benzyl 2-hydroxy-4-quinolinecarboxylate], for which the “lactate dehydrogenase (LDH) release from Salmonella infected J774.1 macrophages” value in series [7] is on record as “reduced lactate dehydrogenase (LDH) release from Salmonella infected J774.1 macrophages”. In addition, in series [4] (KH-2 5 μM, 10 μM and 20 μM, after 24 hours), the “growth of Salmonella in J774.1 macrophages (intracellular CFU)” value is “inhibits the growth of Salmonella in J774.1 macrophages”. For the same molecule, the “growth of Salmonella in Luria-Bertani (LB) bacterial growth media (OD600)” value in [8] is on record as “does not inhibit the growth of Salmonella in Luria-Bertani (LB) bacterial growth media”. In addition, the “survival of mice after lethal Salmonella infection” value in [9] is “protects mice from lethal Salmonella infection”.
